Measured values published in patent US6569847B1, “Substituted azetidin-2-ones as cysteine protease inhibitors” (NAEJA Pharmaceuticals Inc., priority 1999, dated 2003).

Legend:
[1] = molecular target: T1, Cathepsin K (Homo sapiens, UniProt P43235); test: Assay Procedure for Cathepsin K (fluorogenic substrate N-CBZ-Phe-Arg-AMC); type: biochemical; conditions: r Cathepsin K, pH 5.5, 10 min preincubation; read-out: CatK IC50
T1 sequence (P43235 115-329): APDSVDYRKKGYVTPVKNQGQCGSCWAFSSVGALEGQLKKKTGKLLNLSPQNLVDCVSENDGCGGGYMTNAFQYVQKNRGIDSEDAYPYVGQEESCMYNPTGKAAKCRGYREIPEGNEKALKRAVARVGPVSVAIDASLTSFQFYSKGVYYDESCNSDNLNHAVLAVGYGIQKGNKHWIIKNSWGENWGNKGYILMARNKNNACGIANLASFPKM
Experimental: Assay Procedure for Cathepsin K
To 170 μl of enzyme-buffer mixture (r Cathepsin K diluted to give approx. 30 F units/min. Buffer: 100 mM sodium acetate, 5 mM EDTA, 20 mM L-Cysteine, 0.01% Brij , pH 5.5), 10 μl of inhibitor (dissolved in 100% DMSO) was added.
After 10 min of incubation at room temperature 20 μl of 2.7 mM substrate (N-CBZ-Phe-Arg-AMC, dissolved in DMSO) was added to initiate reaction. Reading is followed for 10 min at the Fluoroscan II plate reader (excitation at 380 nm, emission at 460 nm).
(§1) A plot of percentage of inhibition vs inhibitor concentration is obtained, and the IC50 is determined using a linear regression calculation (concentration of inhibitor which will give 50% inhibition).

[2] = molecular target: Cathepsin L (Homo sapiens, UniProt P07711); test: Assay Procedure for Cathepsin L (fluorogenic substrate N-CBZ-Phe-Arg-AMC); type: biochemical; conditions: r Cathepsin L, pH 5.0, 10 min preincubation; read-out: CatL IC50
Experimental: Assay Procedure for Cathepsin L
To 170 μl of an enzyme-buffer mixture (enzyme: r Cathepsin L, diluted to give 25 F units/min, buffer: 58.8 mM Na citrate, 1.18 mM EDTA, 235 mM sodium chloride, 10 mM DTT, pH 5.0), 10 μl of an inhibitor (dissolved in 100% DMSO ) was added.
After 10 min of incubation at room temperature 20 μl of 1 mM substrate (N-CBZ-Phe-Arg-AMC) dissolved in DMSO was added to initiate the reaction. Reading was for 10 min at the Fluoroscan reader (excitation at 380 nm, emission at 460 nm).
as §1

[3] = molecular target: Cathepsin S (Homo sapiens, UniProt P25774); test: Assay Procedure for Cathepsin S (fluorogenic substrate CBZ-Val-Val-Arg-AMC); type: biochemical; conditions: r Cathepsin S, pH 6.5, 10 min preincubation; read-out: CatS IC50
Experimental: Assay Procedure for Cathepsin S
To 170 μl of enzyme-buffer mixture (r Cathepsin S diluted to give approx. 30 F unis/min, buffer: 100 mM sodium phosphate, 1 mM EDTA, 5 mM DTT ,0.01% Brij, pH 6.5.), 10 μl of inhibitor (dissolved in 100% DMSO) was added.
After 10 min of incubation at room temperature 20 μl of 1.2 mM substrate (CBZ-Val-Val-Arg-AMC, dissolved in DMSO) was added to initiate reaction. Reading is followed for 10 min at the Fluoroscan II plate reader (excitation at 380 nm, emission at 460 nm).
as §1

[4] = molecular target: Cathepsin B (Homo sapiens, UniProt P07858); test: Assay Procedure for Cathepsin B (fluorogenic substrate N-CBZ-Phe-Arg-AMC); type: biochemical; conditions: r Cathepsin B, pH 5.1, 10 min preincubation; read-out: CatB IC50
Experimental: Assay Procedure for Cathepsin B
To 170 μl of enzyme-buffer mixture (r Cathepsin B diluted to give approx. 30 F units/min, buffer: 56 mM Na acetate, 1.124 mM EDTA, 10 mM DTT, pH 5.1), 10 μl of inhibitor (dissolved in 100% DMSO ) was added.
After 10 min of incubation at mom temperature 20 μl of 5 mM substrate (N-CBZ-Phe-Arg-AMC, dissolved in DMSO ) was added to initiate reaction. Reading is followed for 10 min at the Fluoroscan reader (excitation at 380 nm, emission at 460 nm).
as §1

Sequence of Cathepsin L (P07711 114-333, species assumed): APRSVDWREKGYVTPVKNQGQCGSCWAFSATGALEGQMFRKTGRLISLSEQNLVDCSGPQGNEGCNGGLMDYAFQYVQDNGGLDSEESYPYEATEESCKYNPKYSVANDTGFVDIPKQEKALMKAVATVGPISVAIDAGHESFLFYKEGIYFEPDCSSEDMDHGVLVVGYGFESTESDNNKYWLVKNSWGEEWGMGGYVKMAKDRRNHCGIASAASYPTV
Sequence of Cathepsin S (P25774 115-331, species assumed): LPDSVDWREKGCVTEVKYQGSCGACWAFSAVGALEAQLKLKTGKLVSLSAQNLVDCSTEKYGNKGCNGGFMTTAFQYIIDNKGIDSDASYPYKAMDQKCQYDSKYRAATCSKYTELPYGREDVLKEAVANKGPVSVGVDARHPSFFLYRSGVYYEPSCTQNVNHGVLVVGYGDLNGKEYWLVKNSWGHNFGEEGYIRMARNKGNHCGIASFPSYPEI

C[C@@]1(NC(=O)[C@H](CC2CCCCC2)NC(=O)CCCCCNC(=NC(=O)OCc2ccccc2)NC(=O)OCc2ccccc2)C(=O)N[C@H]1Oc1ccccc1 [Example 7, (3S,4S)-3-[2S-2-(6-N, N-dibenzyloxycarbonylguanidinohexanoyl)-amino-2-cyclohexylmethyl]-acetamido-3-methyl-4-phenoxy-azetidine-2-one]
IC50 [1]: 32.5 µM | IC50 [2]: 32.5 µM | IC50 [3]: 0.02 µM | IC50 [4]: 26.2 µM

CC(=O)O[C@@H]1NC(=O)[C@@]1(C)NC(=O)[C@H](Cc1ccccc1)NC(=O)CCc1ccccc1 [Example 4, (3S,4S)-3-[2S-2-(3-phenylpropionyl)-amino-2-benzyl]-acetamido-3-methyl-4-acetoxy azetidine-2-one]
IC50 [1]: 1.14 µM | IC50 [2]: 1.91 µM | melting point: 163 to 164 °C | IC50 [3]: 0.098 µM | IC50 [4]: 10 µM

C[C@@]1(NC(=O)[C@H](Cc2ccccc2)NC(=O)CCc2ccccc2)C(=O)N[C@H]1Oc1cccc(C(=O)OC(c2ccccc2)c2ccccc2)c1 [Example 18, (3S,4S)-3-[2S-2-(3-phenylpropionyl)-amino-2-benzyl]-acetamido-3-methyl-4-(3-diphenylmethoxycarbonyl)-phenoxy azetidine-2-one]
IC50 [1]: 7.3 µM | IC50 [2]: 7.33 µM | IC50 [3]: 0.69 µM | IC50 [4]: > 36.6 µM

CC(C)(C)OC(=O)N[C@@H](Cc1cccnc1)C(=O)N[C@]1(C)C(=O)N[C@H]1Oc1ccccc1 [Example 12]
IC50 [1]: 7.74 µM | IC50 [2]: 2.27 µM | melting point: 109 to 110 °C | IC50 [3]: 1.8 µM | IC50 [4]: 11.3 µM

CC(C)(C)OC(=O)N[C@@H](Cc1cccnc1)C(=O)N[C@]1(C)C(=O)N[C@@H]1Oc1ccccc1 [Example 14]
IC50 [1]: 1.34 µM | IC50 [2]: 0.45 µM | IC50 [3]: 0.05 µM | IC50 [4]: 0.36 µM
